Data published in PubChem BioAssay (NCI).
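Five concentrations, 48 hours, 96-well plates. TGI denotes the concentration required for complete inhibition of growth.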

Key:
Test in all cases: DTP human tumour cell line panel, 48 h
K-562 leukemia = system: K-562 leukemia
ACHN renal = system: ACHN renal
KM12 colon = system: KM12 colon
NCI-H522 lung = system: NCI-H522 lung
LOX IMVI melanoma = system: LOX IMVI melanoma
HOP-92 NSCLC = system: HOP-92 NSCLC
HT29 colon = system: HT29 colon
U251 CNS = system: U251 CNS
786-0 renal = system: 786-0 renal
TK-10 renal = system: TK-10 renal
HCT-116 colon = system: HCT-116 colon
A498 renal = system: A498 renal
SF-539 CNS = system: SF-539 CNS
MDA-MB-231 breast = system: MDA-MB-231 breast
T-47D breast = system: T-47D breast
DU-145 prostate = system: DU-145 prostate
MCF7 breast = system: MCF7 breast
BT-549 breast = system: BT-549 breast

SMILES	TGI (K-562 leukemia) [µM]	TGI (ACHN renal) [µM]	TGI (KM12 colon) [µM]	TGI (NCI-H522 lung) [µM]	TGI (LOX IMVI melanoma) [µM]	TGI (HOP-92 NSCLC) [µM]	TGI (HT29 colon) [µM]	TGI (U251 CNS) [µM]	TGI (786-0 renal) [µM]	TGI (TK-10 renal) [µM]	TGI (HCT-116 colon) [µM]	TGI (A498 renal) [µM]	TGI (SF-539 CNS) [µM]	TGI (MDA-MB-231 breast) [µM]	TGI (T-47D breast) [µM]	TGI (DU-145 prostate) [µM]	TGI (MCF7 breast) [µM]	TGI (BT-549 breast) [µM]
CC12NN=NC1C(=O)NC2=O (stereo unspecified)	> 100	> 100	> 100	> 100	> 100	> 100	> 100	> 100	> 100	> 100	> 100	> 100	> 100					
COc1cc(OC)c(OC)cc1/C=N/N=C(\N)NO	> 100	> 100	> 100	> 100	> 100	> 100	> 100	> 100	> 100	> 100	> 100	> 100	> 100	> 100	> 100	> 100	> 100	
CCOC(=O)C1=C(O)C(=O)c2ccsc2C1=O	> 100	> 100	> 100	> 100	> 100	> 100	> 100	> 100	> 100	> 100	> 100	> 100	> 100					
COc1ccccc1NC(=O)/C(Cc1nc2ccc([N+](=O)[O-])cc2[nH]c1=O)=N\NC(=O)C[N+](C)(C)C		> 100	> 100	> 100	> 100	> 100	> 100	> 100	> 100	> 100	> 100		> 100	> 100		> 100	> 100	> 100
CCOC(=O)/C(C(=S)Nc1ccccc1)=C(/N)N1CCCC1	> 100	> 100	> 100	> 100	> 100	53.2	> 100	> 100	> 100	> 100	> 100	> 100	> 100	> 100		> 100	> 100	
CCOC(=O)c1c(N2CCCC2)nsc1Nc1ccccc1	> 100	> 100	> 100		> 100	> 100	> 100		> 100	> 100	> 100	> 100	> 100	> 100	> 100	> 100		
CN(C)CCNC(=O)c1cccc2c(NCC(=O)O)c3ccccc3nc12	> 100	> 100	60.7	35.3	> 100	> 100	17.7	> 100	62.7	> 100	67.4	57.9		69.5		> 100	27.8	
COc1cc2cc(C(=O)N3CC(CCl)c4ccc(O)cc43)[nH]c2c(OC)c1OC (stereo unspecified)		0.000211	0.0273	0.00168	0.136		0.0107		0.121	22.4			0.00881	0.0134	0.547	0.661		
COC(=O)C1CCC(=O)N1CN(C(C)=O)c1ccccc1 (stereo unspecified)	> 100	> 100	> 100	> 100	> 100	> 100	> 100	> 100	> 100	> 100	> 100	> 100	> 100	> 100	> 100	> 100	> 100	
O=C(c1ccccc1)c1ccc(COc2ccc(C(c3c(O)c4ccccc4oc3=O)c3c(O)c4ccccc4oc3=O)cc2)cc1	53.3	38.1	29.6	38.1	56.5		34.9	> 100	61.5	32.8	> 100		46.4	> 100	57.6	> 100	67.5	
CCC(NC(C)c1ccccc1)C(O)c1ccc(OCc2ccccc2)c(OCc2ccccc2)c1 (stereo unspecified)	9.44	32.2	18	35.1	26.3	16.7	13	27.7	27.1	32.4	27.7	39.1	32.8	21.2	40.1	32.1	31.1	
CNC(=O)N1CN(c2ccccc2)C2(CCN(CCCC(=O)c3ccc(F)cc3)CC2)C1=O	49	75.5	45.9	56.6	37.1		26.9	60.4	87.1	49.5	24.6		34	90.3	33.8	> 100	16	
O=[N+]([O-])/C=C1\COCc2cc3c(cc21)OCO3	> 100	43.3	28.4	40.2	71.5	> 100	67.2	36.5	44.3	50	39.6	42	52.4	29.8	46	37.4	35.8	
CCO[C@]12C[C@H](OC)[C@@]3(O)CC(C1[C@H]3OCc1ccccc1)C13C4C2[C@H](OC)C1[C@](COC)(CN4CC)[C@H](O)C[C@@H]3OC (stereo partly specified)	> 100	> 100			> 100		> 100	> 100	> 100	> 100	> 100		> 100					
CCOC(=O)c1sc2c(c1OC(=O)c1cccs1)c(=O)n(-c1ccccc1)c(=S)n2-c1ccccc1	> 100	37.6	42.3	27.1	36.3	52.7	17.2	31.4	24.4	> 100	22	18.9	36	41.8	> 100	94.1	69.1	
